{"source": "ChEMBL document CHEMBL4507264", "about": "“Data for DCP probe BAY-7598” (2021)", "key": {"[1]": {"biological_target": "Serine/threonine-protein kinase/endoribonuclease IRE1 (Homo sapiens) (UniProt O75460)", "sequence (O75460 19-977 limits assumed)": "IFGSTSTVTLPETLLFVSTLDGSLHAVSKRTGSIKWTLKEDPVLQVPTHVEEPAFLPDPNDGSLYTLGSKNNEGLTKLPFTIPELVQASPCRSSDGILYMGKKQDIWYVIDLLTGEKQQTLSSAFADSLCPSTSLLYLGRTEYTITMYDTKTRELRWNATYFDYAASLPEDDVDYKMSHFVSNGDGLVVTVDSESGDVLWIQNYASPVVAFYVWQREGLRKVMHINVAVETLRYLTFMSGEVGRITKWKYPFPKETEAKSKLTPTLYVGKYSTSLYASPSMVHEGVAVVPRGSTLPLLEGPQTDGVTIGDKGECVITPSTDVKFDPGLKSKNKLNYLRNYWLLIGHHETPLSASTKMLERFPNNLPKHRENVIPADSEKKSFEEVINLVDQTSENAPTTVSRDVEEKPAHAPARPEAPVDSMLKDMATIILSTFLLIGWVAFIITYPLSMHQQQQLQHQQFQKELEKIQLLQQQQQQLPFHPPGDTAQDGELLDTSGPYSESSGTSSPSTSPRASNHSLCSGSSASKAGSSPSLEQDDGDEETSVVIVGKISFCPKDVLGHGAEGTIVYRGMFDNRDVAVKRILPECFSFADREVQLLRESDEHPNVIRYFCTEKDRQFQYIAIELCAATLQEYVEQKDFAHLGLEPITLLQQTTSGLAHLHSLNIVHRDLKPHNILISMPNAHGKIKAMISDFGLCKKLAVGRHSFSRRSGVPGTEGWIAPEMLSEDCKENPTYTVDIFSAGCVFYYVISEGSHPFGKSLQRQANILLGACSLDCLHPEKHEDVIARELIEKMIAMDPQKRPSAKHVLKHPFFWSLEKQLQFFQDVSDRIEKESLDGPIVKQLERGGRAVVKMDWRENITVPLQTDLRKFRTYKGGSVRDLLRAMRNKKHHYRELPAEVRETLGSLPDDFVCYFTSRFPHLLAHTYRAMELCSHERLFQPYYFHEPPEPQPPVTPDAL", "details": "Compound concentration 1000.0 nM; call rule not given here"}, "[2]": {"biological_target": "Myosin light chain kinase 2, skeletal/cardiac muscle (Homo sapiens) (UniProt Q9H1R3)", "sequence (Q9H1R3 whole entry)": "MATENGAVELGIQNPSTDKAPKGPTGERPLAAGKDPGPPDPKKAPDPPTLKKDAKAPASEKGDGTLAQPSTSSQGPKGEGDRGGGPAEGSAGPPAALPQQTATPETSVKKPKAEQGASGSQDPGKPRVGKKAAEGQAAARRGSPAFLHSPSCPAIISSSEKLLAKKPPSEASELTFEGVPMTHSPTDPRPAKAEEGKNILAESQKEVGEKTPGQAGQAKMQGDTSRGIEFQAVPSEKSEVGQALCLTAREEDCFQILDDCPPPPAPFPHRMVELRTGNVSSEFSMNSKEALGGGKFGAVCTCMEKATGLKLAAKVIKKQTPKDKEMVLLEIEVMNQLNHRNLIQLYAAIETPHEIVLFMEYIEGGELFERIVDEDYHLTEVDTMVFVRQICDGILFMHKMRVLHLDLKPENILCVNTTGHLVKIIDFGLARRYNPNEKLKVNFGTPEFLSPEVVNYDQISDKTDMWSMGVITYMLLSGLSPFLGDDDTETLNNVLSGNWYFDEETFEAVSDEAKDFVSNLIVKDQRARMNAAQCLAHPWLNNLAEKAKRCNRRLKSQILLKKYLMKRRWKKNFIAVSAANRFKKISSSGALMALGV", "details": "Compound concentration 1000.0 nM"}, "[3]": {"biological_target": "Neuropeptide Y receptor type 2 (Homo sapiens) (UniProt P49146)", "test": "Inhibition of Neuropeptide Y Y2 at 10 µM in the Eurofins-Panlabs radioligand binding assay (Eurofins_assay_257110)", "details": "Compound concentration 10.0 uM"}, "[4]": {"biological_target": "Estrogen receptor (Homo sapiens) (UniProt P03372)", "sequence (P03372 whole entry)": "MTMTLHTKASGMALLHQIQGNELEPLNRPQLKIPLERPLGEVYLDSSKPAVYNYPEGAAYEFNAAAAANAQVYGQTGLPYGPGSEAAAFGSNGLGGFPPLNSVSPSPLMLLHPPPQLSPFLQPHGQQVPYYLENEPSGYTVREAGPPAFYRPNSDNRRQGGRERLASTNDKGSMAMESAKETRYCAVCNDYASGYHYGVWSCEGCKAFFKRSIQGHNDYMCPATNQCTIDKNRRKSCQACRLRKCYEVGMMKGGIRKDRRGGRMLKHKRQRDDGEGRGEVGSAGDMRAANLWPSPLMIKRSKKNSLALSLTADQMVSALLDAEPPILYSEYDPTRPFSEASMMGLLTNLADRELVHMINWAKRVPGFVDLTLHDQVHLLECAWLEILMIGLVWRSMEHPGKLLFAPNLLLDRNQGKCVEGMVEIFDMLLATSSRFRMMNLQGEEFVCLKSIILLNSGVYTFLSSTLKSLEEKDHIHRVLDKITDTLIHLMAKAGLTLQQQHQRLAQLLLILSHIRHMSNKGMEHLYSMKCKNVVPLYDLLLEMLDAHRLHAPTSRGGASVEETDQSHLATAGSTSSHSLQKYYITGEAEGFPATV", "details": "Compound concentration 10.0 uM"}, "[5]": {"biological_target": "Glutamate receptor ionotropic, kainate (Rattus norvegicus) (UniProt P22756+Q01812+P42260+P42264+Q63273)", "test": "Inhibition of Glutamate, Kainate at 10 µM in the Eurofins-Panlabs radioligand binding assay (Eurofins_assay_232700)", "details": "Compound concentration 10.0 uM"}, "[6]": {"biological_target": "T1, Muscarinic acetylcholine receptor M2 (Homo sapiens) (UniProt P08172)", "T1 sequence (whole entry)": "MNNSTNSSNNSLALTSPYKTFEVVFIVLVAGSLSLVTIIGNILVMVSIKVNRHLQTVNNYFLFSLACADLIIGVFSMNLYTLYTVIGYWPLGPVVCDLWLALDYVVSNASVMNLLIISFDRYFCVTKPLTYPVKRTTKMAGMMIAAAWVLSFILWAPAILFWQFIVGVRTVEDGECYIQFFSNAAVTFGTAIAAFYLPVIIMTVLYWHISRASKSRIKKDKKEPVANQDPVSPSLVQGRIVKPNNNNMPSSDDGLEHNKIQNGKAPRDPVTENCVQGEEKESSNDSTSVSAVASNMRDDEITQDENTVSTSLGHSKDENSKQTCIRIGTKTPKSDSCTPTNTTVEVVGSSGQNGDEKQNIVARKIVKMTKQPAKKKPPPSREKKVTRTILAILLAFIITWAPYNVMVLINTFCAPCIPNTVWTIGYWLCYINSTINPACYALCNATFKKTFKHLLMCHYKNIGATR", "details": "Compound concentration 10.0 uM"}, "[7]": {"biological_target": "D(2) dopamine receptor (Homo sapiens) (UniProt P14416)", "details": "Compound concentration 10.0 uM"}, "[8]": {"biological_target": "Kappa-type opioid receptor (Homo sapiens) (UniProt P41145)", "details": "Compound concentration 10.0 uM"}, "[9]": {"biological_target": "5-hydroxytryptamine receptor 3A (Homo sapiens) (UniProt P46098)", "details": "Compound concentration 10.0 uM"}, "[10]": {"biological_target": "Histamine H3 receptor (Homo sapiens) (UniProt Q9Y5N1)", "sequence (Q9Y5N1 whole entry)": "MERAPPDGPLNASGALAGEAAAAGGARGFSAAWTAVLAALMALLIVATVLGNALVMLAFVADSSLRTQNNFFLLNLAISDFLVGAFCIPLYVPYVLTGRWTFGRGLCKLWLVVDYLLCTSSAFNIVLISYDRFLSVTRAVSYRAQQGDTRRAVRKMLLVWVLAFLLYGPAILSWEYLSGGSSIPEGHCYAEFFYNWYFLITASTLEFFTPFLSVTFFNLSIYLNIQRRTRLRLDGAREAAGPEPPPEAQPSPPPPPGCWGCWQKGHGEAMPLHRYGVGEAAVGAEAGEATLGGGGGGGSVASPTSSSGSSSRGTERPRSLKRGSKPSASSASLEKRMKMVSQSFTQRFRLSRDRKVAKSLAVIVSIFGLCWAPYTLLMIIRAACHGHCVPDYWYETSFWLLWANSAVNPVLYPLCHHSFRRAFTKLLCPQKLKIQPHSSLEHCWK", "details": "Compound concentration 10.0 uM"}, "[11]": {"biological_target": "Melatonin receptor type 1A (Homo sapiens) (UniProt P48039)", "test": "Inhibition of Melatonin MT1 at 10 µM in the Eurofins-Panlabs radioligand binding assay (Eurofins_assay_251600)", "set-up": "ligand concentration 0.05 nM", "details": "Compound concentration 10.0 uM"}, "[12]": {"biological_target": "ATP-sensitive inward rectifier potassium channel 11 (Cricetulus griseus) (UniProt A0A3L7HHE1)", "test": "Inhibition of Potassium Channel [KATP] at 10 µM in the Eurofins-Panlabs radioligand binding assay (Eurofins_assay_265600)", "details": "Cricetinae; Compound concentration 10.0 uM"}, "[13]": {"biological_target": "T2, Alpha-1D adrenergic receptor (Homo sapiens) (UniProt P25100)", "T2 sequence (whole entry)": "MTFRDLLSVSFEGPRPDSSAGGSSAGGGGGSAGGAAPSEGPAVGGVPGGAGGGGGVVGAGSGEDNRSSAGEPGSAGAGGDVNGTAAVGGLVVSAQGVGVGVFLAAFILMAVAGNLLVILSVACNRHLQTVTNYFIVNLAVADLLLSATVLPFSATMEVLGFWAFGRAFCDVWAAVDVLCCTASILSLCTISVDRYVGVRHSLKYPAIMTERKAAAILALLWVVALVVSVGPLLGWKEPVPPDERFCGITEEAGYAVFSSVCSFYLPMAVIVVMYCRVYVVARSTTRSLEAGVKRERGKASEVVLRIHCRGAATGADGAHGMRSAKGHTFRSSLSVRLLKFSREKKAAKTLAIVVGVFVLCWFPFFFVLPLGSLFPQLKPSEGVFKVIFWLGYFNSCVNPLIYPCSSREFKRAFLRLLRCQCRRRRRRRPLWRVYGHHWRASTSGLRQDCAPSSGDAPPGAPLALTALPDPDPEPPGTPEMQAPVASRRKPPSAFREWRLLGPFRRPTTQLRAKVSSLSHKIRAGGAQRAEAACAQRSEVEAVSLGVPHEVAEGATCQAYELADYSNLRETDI", "test": "Inhibition of Adrenergic alpha1D at 10 µM in the Eurofins-Panlabs radioligand binding assay (Eurofins_assay_203400)", "details": "Compound concentration 10.0 uM"}, "[14]": {"biological_target": "Beta-1 adrenergic receptor (Homo sapiens) (UniProt P08588)", "details": "Compound concentration 10.0 uM"}, "[15]": {"biological_target": "Voltage-dependent N-type calcium channel subunit alpha-1B (Homo sapiens) (UniProt Q00975)", "test": "Inhibition of Calcium Channel N-Type at 10 µM in the Eurofins-Panlabs radioligand binding assay (Eurofins_assay_216000)", "details": "Rattus norvegicus; Compound concentration 10.0 uM"}, "[16]": {"species_on_record": "Rattus norvegicus", "test": "Inhibition of Imidazoline I2, Central at 10 µM in the Eurofins-Panlabs radioligand binding assay (Eurofins_assay_241000)", "set-up": "ligand concentration 2 nM", "details": "Compound concentration 10.0 uM"}, "[17]": {"biological_target": "Muscarinic acetylcholine receptor M3 (Homo sapiens) (UniProt P20309)", "details": "Compound concentration 10.0 uM"}, "[18]": {"biological_target": "L-type calcium channel, dihydropyridine site (Cav1.2 alpha-1C) (Homo sapiens, UniProt Q13936)", "test": "Inhibition of Calcium Channel L-Type, Dihydropyridine at 10 µM in the Eurofins-Panlabs radioligand binding assay (Eurofins_assay_214600)", "set-up": "ligand concentration 0.1 nM, non-specific ligand with concentration 1 µM Nitrendipine, incubation time 90 min, incubation temperature 25 °C", "details": "Wistar, rat, rat cerebral cortex preparation, probe [3H] Nitrendipine; compound concentration 10 uM; target entry is the homologue from another species"}, "[19]": {"biological_target": "Cannabinoid receptor 1 (Homo sapiens) (UniProt P21554)", "details": "Compound concentration 10.0 uM"}, "[20]": {"biological_target": "Beta-2 adrenergic receptor (Homo sapiens) (UniProt P07550)", "sequence (P07550 whole entry, looked up)": "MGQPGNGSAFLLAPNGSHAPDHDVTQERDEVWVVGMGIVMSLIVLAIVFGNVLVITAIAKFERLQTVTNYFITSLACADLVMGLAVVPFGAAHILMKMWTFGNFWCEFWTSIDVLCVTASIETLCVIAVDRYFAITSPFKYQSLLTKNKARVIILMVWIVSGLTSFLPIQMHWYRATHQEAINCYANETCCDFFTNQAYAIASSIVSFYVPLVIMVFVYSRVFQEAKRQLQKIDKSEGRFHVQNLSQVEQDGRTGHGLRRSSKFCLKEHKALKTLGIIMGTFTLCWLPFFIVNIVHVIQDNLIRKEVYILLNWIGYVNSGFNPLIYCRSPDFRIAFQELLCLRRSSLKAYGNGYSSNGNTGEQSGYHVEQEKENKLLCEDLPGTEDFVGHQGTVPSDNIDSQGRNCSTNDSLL", "details": "Compound concentration 10.0 uM"}, "[21]": {"biological_target": "Endothelin-1 receptor (Homo sapiens) (UniProt P25101)", "sequence (P25101 whole entry)": "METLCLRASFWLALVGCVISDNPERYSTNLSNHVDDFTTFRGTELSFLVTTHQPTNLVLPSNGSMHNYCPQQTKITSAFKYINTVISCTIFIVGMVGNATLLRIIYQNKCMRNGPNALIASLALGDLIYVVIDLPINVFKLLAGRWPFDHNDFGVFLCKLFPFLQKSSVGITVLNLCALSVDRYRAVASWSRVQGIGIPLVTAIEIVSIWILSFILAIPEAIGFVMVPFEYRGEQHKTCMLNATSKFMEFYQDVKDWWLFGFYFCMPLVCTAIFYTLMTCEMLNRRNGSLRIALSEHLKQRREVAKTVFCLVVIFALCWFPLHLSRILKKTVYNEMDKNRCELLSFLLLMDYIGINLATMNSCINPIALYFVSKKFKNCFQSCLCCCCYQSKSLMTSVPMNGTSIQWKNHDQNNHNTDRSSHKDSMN", "details": "Compound concentration 10.0 uM"}, "[22]": {"biological_target": "Substance-P receptor (Homo sapiens) (UniProt P25103)", "sequence (P25103 whole entry)": "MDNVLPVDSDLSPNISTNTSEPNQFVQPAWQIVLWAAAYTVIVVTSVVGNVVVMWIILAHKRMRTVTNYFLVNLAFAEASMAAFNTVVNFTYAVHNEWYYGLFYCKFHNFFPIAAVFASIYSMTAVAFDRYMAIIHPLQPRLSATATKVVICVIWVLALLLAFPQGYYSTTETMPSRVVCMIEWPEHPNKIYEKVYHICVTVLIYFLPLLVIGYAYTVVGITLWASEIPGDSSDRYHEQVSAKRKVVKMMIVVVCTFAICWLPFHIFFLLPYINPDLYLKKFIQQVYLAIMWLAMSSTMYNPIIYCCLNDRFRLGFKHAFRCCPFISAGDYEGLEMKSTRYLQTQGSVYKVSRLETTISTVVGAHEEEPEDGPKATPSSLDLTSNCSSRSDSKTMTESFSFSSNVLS", "test": "Inhibition of Tachykinin NK1 at 10 µM in the Eurofins-Panlabs radioligand binding assay (Eurofins_assay_255520)", "set-up": "ligand concentration 0.8 nM", "details": "Compound concentration 10.0 uM"}, "[23]": {"biological_target": "Histamine H1 receptor (Homo sapiens) (UniProt P35367)", "sequence (P35367 whole entry)": "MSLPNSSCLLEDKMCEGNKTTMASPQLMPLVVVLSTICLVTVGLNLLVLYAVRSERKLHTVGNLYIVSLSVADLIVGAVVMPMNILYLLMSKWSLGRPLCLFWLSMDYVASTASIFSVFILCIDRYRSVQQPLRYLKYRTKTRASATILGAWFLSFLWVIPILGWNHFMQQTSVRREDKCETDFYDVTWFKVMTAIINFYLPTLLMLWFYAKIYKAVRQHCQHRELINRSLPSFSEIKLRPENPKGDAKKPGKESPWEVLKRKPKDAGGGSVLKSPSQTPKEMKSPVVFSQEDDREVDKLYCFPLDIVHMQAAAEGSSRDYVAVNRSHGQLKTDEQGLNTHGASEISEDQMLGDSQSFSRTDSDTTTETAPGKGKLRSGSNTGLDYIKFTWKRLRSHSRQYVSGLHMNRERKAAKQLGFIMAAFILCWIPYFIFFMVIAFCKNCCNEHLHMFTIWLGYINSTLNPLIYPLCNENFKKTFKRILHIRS", "details": "Compound concentration 10.0 uM"}, "[24]": {"biological_target": "Acetylcholine receptor subunit alpha (Homo sapiens) (UniProt P02708)", "sequence (P02708 whole entry)": "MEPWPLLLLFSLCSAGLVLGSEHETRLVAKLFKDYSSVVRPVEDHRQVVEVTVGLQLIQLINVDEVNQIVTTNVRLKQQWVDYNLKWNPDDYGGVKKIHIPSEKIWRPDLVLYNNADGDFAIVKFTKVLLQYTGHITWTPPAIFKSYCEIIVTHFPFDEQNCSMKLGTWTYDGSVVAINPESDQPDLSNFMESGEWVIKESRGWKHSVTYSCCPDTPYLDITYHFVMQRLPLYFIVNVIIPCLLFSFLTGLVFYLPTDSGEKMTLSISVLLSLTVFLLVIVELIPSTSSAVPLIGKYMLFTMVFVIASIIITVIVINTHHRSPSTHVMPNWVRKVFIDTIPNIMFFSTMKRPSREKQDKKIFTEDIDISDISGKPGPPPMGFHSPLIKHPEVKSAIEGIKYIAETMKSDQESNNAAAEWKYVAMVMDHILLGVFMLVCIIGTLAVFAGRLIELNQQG", "test": "Inhibition of Nicotinic Acetylcholine D1, Bungarotoxin at 10 µM in the Eurofins-Panlabs radioligand binding assay (Eurofins_assay_258700)", "details": "Compound concentration 10.0 uM"}, "[25]": {"species_on_record": "Homo sapiens", "test": "Inhibition of Nicotinic Acetylcholine at compound concentration of 10.0 uM in the Eurofins-Panlabs radioligand binding assay (Eurofins_assay_258590)", "format": "protein-complex assay", "details": "Compound concentration 10.0 uM"}}}
{"compound": "O=C(O)[C@@H]1[C@@H](Cn2nnc3ccccc3c2=O)CC[C@H]1C(=O)c1ccc(OCCC2CCOCC2)cc1", "note": "[BAY-694]", "values": [{"measurement": "residual activity", "setting": "[1]", "result": 88, "unit": "%"}, {"measurement": "residual activity", "setting": "[2]", "result": 100, "unit": "%"}]}
{"compound": "O=C(O)[C@H]1[C@H](Cn2nnc3ccccc3c2=O)CC[C@@H]1C(=O)c1ccc(OCCC2CCOCC2)cc1", "note": "[BAY-7598]", "values": [{"measurement": "inhibition", "setting": "[3]", "result": 3, "unit": "%"}, {"measurement": "inhibition", "setting": "[4]", "result": 2, "unit": "%"}, {"measurement": "inhibition", "setting": "[5]", "result": -4, "unit": "%"}, {"measurement": "inhibition", "setting": "[6]", "result": 0, "unit": "%"}, {"measurement": "inhibition", "setting": "[7]", "result": 2, "unit": "%"}, {"measurement": "inhibition", "setting": "[8]", "result": 7, "unit": "%"}, {"measurement": "residual activity", "setting": "[1]", "result": 82, "unit": "%"}, {"measurement": "inhibition", "setting": "[9]", "result": -7.84, "unit": "%"}, {"measurement": "inhibition", "setting": "[10]", "result": -6, "unit": "%"}, {"measurement": "inhibition", "setting": "[11]", "result": 2, "unit": "%"}, {"measurement": "inhibition", "setting": "[12]", "result": 9, "unit": "%"}, {"measurement": "inhibition", "setting": "[13]", "result": -9, "unit": "%"}, {"measurement": "inhibition", "setting": "[14]", "result": 0, "unit": "%"}, {"measurement": "inhibition", "setting": "[15]", "result": 6, "unit": "%"}, {"measurement": "inhibition", "setting": "[16]", "result": 5, "unit": "%"}, {"measurement": "inhibition", "setting": "[17]", "result": 2, "unit": "%"}, {"measurement": "inhibition at 90 min, 10 µM", "setting": "[18]", "result": "0% (not active)"}, {"measurement": "inhibition", "setting": "[19]", "result": 17, "unit": "%"}, {"measurement": "inhibition", "setting": "[20]", "result": 4, "unit": "%"}, {"measurement": "inhibition", "setting": "[21]", "result": 7, "unit": "%"}, {"measurement": "residual activity", "setting": "[2]", "result": 83, "unit": "%"}, {"measurement": "inhibition", "setting": "[22]", "result": -4, "unit": "%"}, {"measurement": "inhibition", "setting": "[23]", "result": 1, "unit": "%"}, {"measurement": "inhibition", "setting": "[24]", "result": 0, "unit": "%"}, {"measurement": "inhibition", "setting": "[25]", "result": -1, "unit": "%"}]}
